Reference: patent US20170281611A1, “QUINOLINES AND THEIR USE FOR TREATING ENDOPLASMIC RETICULUM STRESS-CAUSED DISEASES” (EIGER BIOPHARMACEUTICALS, INC., priority 2014, published 2017)

How the values were obtained:
Format in all cases: in vivo
[1] = system: 6-OHDA lesioned Wistar rats; assay: Rat unilateral 6-OHDA model of Parkinson's disease, stepping test; details: D11, L-DOPA 8 mg/kg with benserazide 12.5 mg/kg IP once; 6-OHDA/Vehicle 1.19±0.24 steps
Procedure: (§1) Fifty adult male Wistar rats were used. The rats from different groups (G1 to G5) were randomized. At the beginning of the study, the rats were about 5 weeks old and naive to previous administration of any drug.
(§2) A stereotaxic injection of 6-OHDA (G2 to G5) or saline (G1: sham group) was performed to induce a unilateral dopaminergic lesion on day 0 (D0). Surgery was performed on D0 under ketamine (50 mg/kg) and xylazine (10 mg/kg). The rats of G2 to G5 received a unilateral injection of 6-OHDA (6 μL) in the left substantia nigra pars compacta. Jouve et al., J. Neurosci. 2010, 30, 9919-9928. The rats of the G1 sham group were injected with saline. During surgery, local analgesia was achieved using subcutaneous injections of lidocaine. At the end of surgery, the rats were treated with buprenorphine (0.05 mg/kg, S.C.).
The stepping test was performed after IT test, both before the 6-OHDA lesion induction on D0 and on D11. Around D−6, the stepping test was performed eight consecutive times for the right paw of each animal to obtain baseline values. On D11, the stepping test was performed one hour after the rats were dosed. Each rat was hold by an experimenter and only one of the two forelimbs was left free to move above a plane surface and the other was held with the paw touching the table. The rats were then to be moved slowly forward by the experimenter. The number of adjusting steps was countered for the right paw. Olsson et al., J. Neurosci. 1995, 15, 3863-3875.
L-DOPA and benserazide (a peripheric DOPA decarboxylase inhibitor) were prepared together as a single solution containing 0.9% NaCl and 0.1% ascorbic acid.
All the dosings were given via the IP route, once daily, Sunday excluded.

[2] = system: 6-OHDA lesioned Wistar rats; assay: Rat unilateral 6-OHDA model of Parkinson's disease, initiation time (IT) test; details: D11, L-DOPA 8 mg/kg with benserazide 12.5 mg/kg IP once; 6-OHDA/Vehicle 37.88±6.10 sec
Procedure: as §1, §2
The IT test was performed both before the 6-OHDA lesion induction on D0 and on day 11 (D11) after the 6-OHDA lesion induction. Around six days (D−6) before the 6-OHDA lesion induction, the IT test was performed eight consecutive times for each limb of each rat to obtain baseline values. On D11, the IT test was performed one hour after the rats were dosed. For every test, only one of the two forelimbs of each rat was left free to move and the time that is necessary to initiate the movement toward a plane surface was recorded using 180 sec as break-off point. […]

[3] = system: 6-OHDA lesioned Wistar rats; assay: Rat unilateral 6-OHDA model of Parkinson's disease, cylinder test; details: D11, L-DOPA 8 mg/kg with benserazide 12.5 mg/kg IP once; 6-OHDA/Vehicle 23.17±6.45
Procedure: as §1, §2
The cylinder test was performed only on D11, after completion of the IT and stepping tests, and 1.5 hours after the rats were dosed. The rats were placed in a Plexiglas cylinder and immediately videotaped for 15 min. During this time, the number of contacts made on the cylinder wall with the ipsilateral, contralateral, and two paws simultaneously (double contacts) were recorded and then expressed as a percentage of the total number of contacts. Lundblad et al., Eur. J. Neurosci. 2002, 15, 120-132; Jouve et al., J. Neurosci. 2010, 30, 9919-9928. […]

SMILES: N[C@@H](Cc1ccc(O)c(O)c1)C(=O)O [L-DOPA, reference compound]
- number of adjusting steps [1]: 10.05±0.56 steps
- initiation time [2]: 1.28 ± 0.21 s
- percentage of double contacts [3]: 46.67±4.60 double contacts
